Assays:
[1] = Plasma protein binding in dog plasma assessed as unbound fraction; type: ADME, cell-free, Canis lupus familiaris
[2] = Metabolic stability in dog liver microsomes assessed as intrinsic clearance preincubated for 10 mins followed by NADPH addition and measured after 60 mins by LC-MS/MS analysis; type: ADME, Canis lupus familiaris, Microsome; details: time 70 min, read-out: CLH
[3] = Metabolic stability in rat liver microsomes assessed as intrinsic clearance preincubated for 10 mins followed by NADPH addition and measured after 60 mins by LC-MS/MS analysis; type: ADME, Microsome; details: time 70 min, read-out: CLH
[4] = target: T1, Mu-type opioid receptor (Homo sapiens, UniProt P35372); test: Agonist activity at mu opioid receptor (unknown origin) assessed as increase in cAMP level incubated for 40 mins by spectrophotometry; type: functional
T1 sequence (P35372 whole entry): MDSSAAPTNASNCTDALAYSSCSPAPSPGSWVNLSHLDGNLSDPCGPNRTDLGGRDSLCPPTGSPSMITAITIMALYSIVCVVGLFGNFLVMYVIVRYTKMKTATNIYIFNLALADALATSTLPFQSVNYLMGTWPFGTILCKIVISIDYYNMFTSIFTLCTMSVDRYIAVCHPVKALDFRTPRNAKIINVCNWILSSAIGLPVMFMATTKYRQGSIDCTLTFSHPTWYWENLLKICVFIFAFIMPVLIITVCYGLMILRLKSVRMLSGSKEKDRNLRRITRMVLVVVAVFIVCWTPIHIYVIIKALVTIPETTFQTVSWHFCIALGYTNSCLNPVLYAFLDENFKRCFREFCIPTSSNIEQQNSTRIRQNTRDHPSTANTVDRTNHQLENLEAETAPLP

[5] = Plasma protein binding in rat plasma assessed as unbound fraction; type: ADME, cell-free
[6] = Apparent permeability across apical to basal membrane in human Caco-2 cells; type: ADME, cell-based
[7] = target: T1, Mu-type opioid receptor; test: Agonist activity at mu opioid receptor (unknown origin) assessed as maximal cAMP level incubated for 40 mins by spectrophotometry relative to DAMGO; type: functional; details: filed as agonist
[8] = Plasma protein binding in human plasma assessed as unbound fraction; type: ADME, cell-free
[9] = Metabolic stability in human liver microsomes assessed as intrinsic clearance preincubated for 10 mins followed by NADPH addition and measured after 60 mins by LC-MS/MS analysis; type: ADME, Microsome; details: time 70 min, read-out: CLH
[10] = target: T1, Mu-type opioid receptor; test: Agonist activity at mu opioid receptor (unknown origin) assessed as beta arrestin-2 recruitment incubated for 3 days by PathHunter assay; type: functional
[11] = target: T1, Mu-type opioid receptor; test: Agonist activity at mu opioid receptor (unknown origin) assessed as maximal beta arrestin-2 recruitment incubated for 3 days by PathHunter assay relative to DAMGO; type: functional; details: time 3.0 day

SMILES	EC50 [4]	Emax [7]	CLint scaled [9]	EC50 [10]	also measured
c1ccc([C@]2(CCNCc3scc4c3CCC4)CCO[C@]3(CCOC3)C2)nc1	0.46 nM	96.9%	49 mL/min/kg	–	fraction unbound [1]: 0.16; CLint scaled [2]: 203 mL/min/kg; CLint scaled [3]: 651 mL/min/kg; fraction unbound [5]: 0.58; Papp A→B [6]: 2.4 ×10⁻⁶ cm/s; fraction unbound [8]: 0.54
c1ccc([C@]2(CCNCc3scc4c3COC4)CCOC3(CCOC3)C2)nc1 (some centres undefined)	14.1 nM	90.4%	–	> 30000 nM	–
FC1(F)CCc2csc(CNCC[C@@]3(c4ccccn4)CCOC4(CCCC4)C3)c2C1	1.8 nM	92.5%	1610 mL/min/kg	11 nM	Emax ([11]; filed as agonist): 54.3%
COc1ccsc1CNCC[C@@]1(c2ccccn2)CCO[C@]2(CCOC2)C1	20 nM	63.7%	9.3 mL/min/kg	> 30000 nM	Emax [11]: 1.2%
Cc1cccc(CNCC[C@@]2(c3ccccn3)CCOC3(CCOC3)C2)c1 (some centres undefined)	6.1 nM	88.9%	8.8 mL/min/kg	> 30000 nM	–
Fc1ccc([C@]2(CCNCc3scc4c3CCC4)CCO[C@]3(CCOC3)C2)nc1	–	95.1%	108 mL/min/kg	–	–
Fc1ccc([C@]2(CCNCc3scc4c3CCC4)CCOC3(CCOCC3)C2)nc1	178 nM	125%	–	725 nM	Emax ([11]; filed as agonist): 125%
Clc1cccc(CNCC[C@@]2(c3ccccn3)CCOC3(CCOC3)C2)c1 (some centres undefined)	2.6 nM	86.4%	22.1 mL/min/kg	> 30000 nM	–
Clc1ccc(CNCC[C@@]2(c3ccccn3)CCOC3(CCOC3)C2)s1 (some centres undefined)	22.3 nM	93.3%	–	> 30000 nM	Emax [11]: 2.3%
FC1(F)Cc2csc(CNCC[C@@]3(c4ccccn4)CCOC4(CCCC4)C3)c2C1	0.1 nM	96.9%	–	10 nM	Emax [11]: 9.8%
FC1(F)CCc2c(csc2CNCC[C@@]2(c3ccccn3)CCOC3(CCOC3)C2)C1 (some centres undefined)	0.5 nM	101%	–	69 nM	Emax ([11]; filed as agonist): 43.1%
Fc1ccc([C@]2(CCNCc3cncc(Cl)c3)CCOC3(CCOC3)C2)cc1 (some centres undefined)	12.8 nM	90.8%	–	> 30000 nM	–
c1ccc([C@]2(CCNCC3CCCCC3)CCOC3(CCOC3)C2)nc1 (some centres undefined)	61.6 nM	59.2%	–	> 30000 nM	–

From ChEMBL document CHEMBL5042488, “Synthesis, biological, and structural explorations of a series of μ-opioid receptor (MOR) agonists with high G protein signaling bias” (Eur J Med Chem, 2022)
